Source: US20040076974A1, “Liver necrosis predictive genes” (priority 2002, published 2004)
Values joined by “and” are separate entries in the source; they are usually repeats but may differ in a detail not shown here. Equal entries are not always repeated. Where two headings read alike, the source gives them in different places.

What was measured:
Sprague Dawley rats = conditions: rat, in vivo; for Liver Necrosis / Score (histopathology liver necrosis severity score): ip
Outline: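 Toxicity calls (necrosis present or absent at 72 h) and histopathology scores were correlated with tissue gene expression from Crl:CD Sprague Dawley rats. Animals, usually 3 treated with compound by i.p. route and 3 given vehicle, were killed at 6, 24 or 72 h and tissues frozen immediately in liquid nitrogen.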

[1] = test system: toxicologically relevant rat genes (rat CT array); conditions: rat, in vivo

O=P1(N(CCCl)CCCl)NCCCO1 (centres unmarked) [cyclophosphamide]
Liver Toxicity Necrosis Classification (Sprague Dawley rats): no | Liver Necrosis (Sprague Dawley rats; 25 mg/kg): no | Score (histopathology liver necrosis severity score) (Sprague Dawley rats; 25 mg/kg): 1 | Liver Necrosis (Sprague Dawley rats; 100 mg/kg): no | Score (histopathology liver necrosis severity score) (Sprague Dawley rats; 100 mg/kg): 1 | 3-hydroxyisobutyrate dehydrogenase expression [1]: 0.9805 and 0.7489 and 0.9559 and 1.069 | 14-3-3 zeta expression [1]: 1.184 and 1.14 and 0.9397 and 1.393 and 1.097 and 1.241 and 0.8233 and 0.7916 | 60S ribosomal protein L6 expression [1]: 0.9039 and 0.9014 and 0.8838 and 1.028 and 0.8728 and 0.8315 | ATPase inhibitor (rat mitochondrial IF1 protein) expression [1]: 0.7509 and 0.9233 and 0.8847 and 0.6961 and 0.9379 and 0.8829 and 0.8577 and 0.9897 | Adenine nucleotide translocator 1 expression [1]: 0.9086 and 0.7561 and 1.167 | Aflatoxin B1 aldehyde reductase expression [1]: 0.6743 and 0.8573 and 0.9459 and 0.6588 and 0.7015 | Alpha-1 microglobulin/bikunin precursor (Ambp) expression [1]: 1.017 and 0.5993 and 0.8086 | Alpha-2-macroglobulin expression [1]: 0.846 and 0.9185 and 0.7109 and 1.376 and 0.7513 | Alpha-2-macroglobulin, sequence 2 expression [1]: 0.9485 and 1.095 and 1.193 | Alpha-prothymosin expression [1]: 0.6454 and 0.6204 | Alpha-tubulin expression [1]: 1.198 and 0.7656 and 0.8189 | Annexin V expression [1]: 1.206 and 1.05 and 1.01 | Apolipoprotein All expression [1]: 0.9781 and 0.8882 and 0.8841 | Apolipoprotein C1 expression [1]: 0.9407 and 0.9263 and 1.074 | Apolipoprotein CIII expression [1]: 0.9783 and 0.6934 and 0.9372 | Aquaporin-3 (AQP3) expression [1]: 0.9643 and 0.9481 and 0.9808 | Arginosuccinate synthetase 1 expression [1]: 1.222 and 0.8241 and 1.258 | Bax (alpha) expression [1]: 1.239 and 1.237 and 1.357 and 1.269 and 0.9338 | Beta-actin, sequence 2 expression [1]: 1.01 and 0.7994 and 0.7978 | Beta-tubulin, class I expression [1]: 0.6539 and 0.688 | Betaine homocysteine methyltransferase (BHMT) expression [1]: 0.479 and 0.46 and 0.7332 | Biliverdin reductase expression [1]: 0.8817 and 0.9203 and 1 | C-reactive protein expression [1]: 1.634 and 0.981 and 1.457 | CDK108 expression [1]: 0.8582 and 0.7188 and 0.8687 | Calpactin I heavy chain expression [1]: 1.229 and 1.24 and 1.238 and 1.077 and 1.066 and 1.019 and 0.9156 | Calpain 2 expression [1]: 0.949 and 0.9377 and 0.9321 | Cathepsin B expression [1]: 0.8937 and 0.8218 and 0.8443 | Cathepsin S expression [1]: 1.022 and 1.151 | Cofilin expression [1]: 1.007 and 0.8938 and 0.9356 | Collagen type II expression [1]: 0.9485 and 0.8839 and 0.6238 | Contrapsin-like protease inhibitor (CPi-21) expression [1]: 1.085 and 0.6397 and 0.8351 | Cyclin D1 expression [1]: 0.8933 and 1.39 | Cystatin C expression [1]: 0.9711 and 1.107 and 0.9417 | Dynamin-1 (D100) expression [1]: 0.9779 and 1.159 and 1.053 and 0.8876 and 0.9989 and 0.9805 and 0.8392 and 0.9019 | Elongation factor-1 alpha expression [1]: 1.136 and 0.9264 | Epidermal growth factor expression [1]: 1.068 and 1.046 (2×) and 0.855 and 1.03 | F1-ATPase beta subunit expression [1]: 0.9746 and 0.7787 and 0.8888 | Fas antigen expression [1]: 1.289 and 1.407 and 0.9112 and 1.614 and 1.141 | Fatty acid synthase expression [1]: 0.8145 and 0.6404 and 0.4288 | Gadd45 expression [1]: 0.951 and 0.9302 and 1.226 and 0.8099 and 0.9252 | Gadd153 expression [1]: 1.107 and 1.088 and 1.217 and 1.23 and 1.048 | Glutathione S-transferase theta-1 expression [1]: 1.063 and 0.5752 and 0.7421 | Heme oxygenase expression [1]: 0.9535 and 0.8807 and 1.153 and 0.8353 and 0.9394 and 1.116 and 1.353 and 1.508 | High affinity IgE receptor gamma chain (FcERIgamma) expression [1]: 0.8735 and 0.8896 and 0.9764 | Hypoxanthine-guanine phosphoribosyltransferase expression [1]: 0.9194 and 0.7728 and 0.8641 | ID-1 expression [1]: 1.442 and 1.187 and 1.516 and 0.9754 and 1.354 | IgE binding protein expression [1]: 0.8797 | Integrin beta1 expression [1]: 1.174 and 0.9675 and 1.666 and 0.9992 | Interleukin-18 expression [1]: 0.9442 and 1.131 | JNK1 stress activated protein kinase expression [1]: 1.083 and 1.357 | L-gulono-gamma-lactone oxidase expression [1]: 0.9031 and 1.152 and 0.724 and 0.7478 and 0.9085 | Lecithin: cholesterol acyltransferase expression [1]: 1.164 and 0.8942 and 0.9655 | Matrin F/G expression [1]: 1.192 and 0.8718 and 1.349 and 1.163 | Melanoma-associated antigen ME491 expression [1]: 0.8571 and 0.8832 and 0.9165 | Monocyte chemotactic protein receptor (CCR2) expression [1]: 0.9135 and 0.9294 and 1.707 and 0.9161 and 1.021 | Multidrug resistant protein-1 expression [1]: 1.07 and 0.9469 and 1.398 | Multidrug resistant protein-2 expression [1]: 1.024 and 1.129 and 1.355 | NADP-dependent isocitrate dehydrogenase, cytosolic expression [1]: 0.8988 and 1.062 | NIPK expression [1]: 1.292 and 0.8721 | Nucleoside diphosphate kinase beta isoform expression [1]: 0.9788 and 0.8819 and 0.9694 | Organic anion transporter 3 expression [1]: 1.199 and 1.24 and 0.8444 and 0.9666 | Organic cation transporter 3 expression [1]: 0.9369 and 0.9031 and 0.9971 and 1.049 and 1.006 and 0.9297 and 0.8878 | Ornithine decarboxylase expression [1]: 1.176 and 1.138 and 1.239 and 1.627 and 1.232 and 1.15 and 0.9487 and 1.103 | Osteoactivin expression [1]: 1.044 and 1.068 and 1.102 | PAR interacting protein expression [1]: 0.9853 and 0.8819 and 1.001 and 0.9074 and 0.8501 | Phase-1 RCT-15 expression [1]: 1.548 | Phase-1 RCT-24 expression [1]: 0.8922 | Phase-1 RCT-33 expression [1]: 0.9894 and 0.9036 and 0.7825 and 0.5992 | Phase-1 RCT-36 expression [1]: 0.8405 and 0.8638 and 0.7841 | Phase-1 RCT-38 expression [1]: 0.6634 | Phase-1 RCT-39 expression [1]: 1.102 and 0.8162 | Phase-1 RCT-40 expression [1]: 0.9476 and 0.7827 and 0.6627 and 0.9191 | Phase-1 RCT-43 expression [1]: 1.413 | Phase-1 RCT-48 expression [1]: 0.7872 | Phase-1 RCT-49 expression [1]: 0.9994 | Phase-1 RCT-50 expression [1]: 1.001 and 0.9172 | Phase-1 RCT-57 expression [1]: 1 | Phase-1 RCT-58 expression [1]: 0.9564 | Phase-1 RCT-61 expression [1]: 0.956 and 0.9001 | Phase-1 RCT-65 expression [1]: 1.662 | Phase-1 RCT-68 expression [1]: 1.562 | Phase-1 RCT-78 expression [1]: 0.8268 | Phase-1 RCT-81 expression [1]: 0.9793 | Phase-1 RCT-88 expression [1]: 0.7545 and 0.7728 and 0.8998 and 0.9204 | Phase-1 RCT-89 expression [1]: 0.8326 | Phase-1 RCT-92 expression [1]: 0.7803 and 0.7782 | Phase-1 RCT-117 expression [1]: 0.9098 | Phase-1 RCT-121 expression [1]: 0.9382 | Phase-1 RCT-123 expression [1]: 0.8497 | Phase-1 RCT-128 expression [1]: 0.7223 | Phase-1 RCT-137 expression [1]: 0.7713 | Phase-1 RCT-138 expression [1]: 0.9171 | Phase-1 RCT-144 expression [1]: 0.8012 and 0.9797 and 0.8356 | Phase-1 RCT-146 expression [1]: 0.8995 | Phase-1 RCT-149 expression [1]: 1.199 | Phase-1 RCT-152 expression [1]: 0.9267 and 0.8689 | Phase-1 RCT-154 expression [1]: 0.9702 | Phase-1 RCT-156 expression [1]: 1.626 | Phase-1 RCT-164 expression [1]: 1.443 and 0.9271 | Phase-1 RCT-179 expression [1]: 0.9473 and 0.8452 and 0.9271 | Phase-1 RCT-180 expression [1]: 0.9312 and 0.9629 | Phase-1 RCT-182 expression [1]: 0.7286 and 0.6249 and 0.7487 and 1.104 | Phase-1 RCT-189 expression [1]: 1.097 and 0.7075 and 0.8923 | Phase-1 RCT-192 expression [1]: 1.102 | Phase-1 RCT-207 expression [1]: 0.9999 and 1.403 and 0.9634 and 0.8151 | Phase-1 RCT-211 expression [1]: 1.001 | Phase-1 RCT-213 expression [1]: 0.9194 and 0.9272 | Phase-1 RCT-227 expression [1]: 0.8544 and 0.7558 | Phase-1 RCT-230 expression [1]: 0.8887 | Phase-1 RCT-241 expression [1]: 0.9823 | Phase-1 RCT-258 expression [1]: 1.294 and 1.004 and 1.001 | Phase-1 RCT-260 expression [1]: 0.9269 | Phase-1 RCT-264 expression [1]: 0.7874 | Phase-1 RCT-270 expression [1]: 0.9664 and 0.6832 | Phase-1 RCT-271 expression [1]: 0.642 and 0.7477 | Phase-1 RCT-288 expression [1]: 0.8319 and 0.9535 | Phase-1 RCT-290 expression [1]: 0.6874 and 0.7078 and 0.8375 | Phase-1 RCT-291 expression [1]: 1 and 0.8077 and 0.9279 | Phase-1 RCT-292 expression [1]: 0.8838 | Poly(ADP-ribose) polymerase expression [1]: 0.9399 and 0.8855 and 1.07 | Presenilin-1 expression [1]: 0.6993 and 0.8827 and 0.7827 | Proliferating cell nuclear antigen gene expression [1]: 0.8773 and 0.9599 and 1 | Protein tyrosine phosphatase, receptor type, D expression [1]: 1.351 and 1.117 | Pyruvate kinase, muscle expression [1]: 0.9707 and 1.019 and 0.8026 | Retinol dehydrogenase type III expression [1]: 1.384 and 0.6954 and 0.7914 | Ribosomal protein S8 expression [1]: 0.9951 and 0.8646 and 0.9055 | Ribosomal protein S17 expression [1]: 0.973 and 0.9247 and 0.8883 and 1.41 and 1.034 and 0.9413 | Stathmin expression [1]: 1.012 and 1.005 and 0.8767 | Thioredoxin-1 (Trx1) expression [1]: 0.9618 and 0.9127 and 0.8599 | Thymidylate synthase expression [1]: 1.077 and 1.121 and 1.142 | Thymosin beta-10 expression [1]: 1.026 and 0.8658 and 0.6552 | Tissue plasminogen activator expression [1]: 0.8917 and 0.8347 and 0.9056 | Transitional endoplasmic reticulum ATPase expression [1]: 0.9095 and 0.8634 and 0.9474 | Transthyretin expression [1]: 0.9173 and 0.9384 and 0.8358 and 0.667 and 1.075 | Ubiquitin conjugating enzyme (RAD 6 homologue) expression [1]: 0.9811 and 1.057 and 0.8291 and 1.341 and 1.041 and 1.145 and 0.8334 and 1.02 | Uncoupling protein 2 expression [1]: 0.8638 and 0.7241 | Zinc finger protein expression [1]: 0.991 and 1.034 and 1.076 and 1.004 and 1.101 and 0.9835 and 1.081 and 1.11 | c-myc expression [1]: 0.9533 (2×) and 0.912 and 1.636 and 0.8965 | p55CDC expression [1]: 0.9412 and 1.059 and 0.9495 | {Phase-1 RCT 98} expression [1]: 0.8899 and 0.9469 | {Ribosomal protein 16} expression [1]: 1.097 and 0.9357 and 0.8372
